Values quoted from earlier work in patent US20190008973A1, “INTRALIPID-IODINE FOR IMAGING” (priority 2017, published 2019).
pIC50: −log10 of the molar value. “Also recorded” adds a separate entry of the source. Read-outs that look alike come from different tables or passages of the source.

What was measured:
[1] = test system: hippocampus; conditions: cited from earlier work
[2] = test system: spinal anaesthesia; conditions: spinal with 40 mg CP 1%; outpatient knee arthroscopy; versus general anaesthesia 142 min, P=0.0047; cited from earlier work
[3] = test system: ischemia/reperfusion injury; conditions: cited from earlier work
[4] = test system: ischemia-reperfusion (IR) injury; conditions: sham-operated hearts; cited from earlier work
[5] = test system: oxygen desaturation; conditions: in vivo; cited from earlier work
[6] = test system: cardiac and regional blood flow; conditions: propofol 4 mg/kg then 0.6 mg/kg/min; Intralipid 0.25 ml/kg then 0.06 ml/kg/min; cited from earlier work
[7] = test system: propofol-mediated hypotension; conditions: cited from earlier work
[8] = test system: I/R injury in late pregnancy; conditions: rat, in vivo; cited from earlier work
[9] = test system: clomipramine toxicity; conditions: 8 mL/kg 20% Intralipid or 2 mL/kg 8.4% sodium bicarbonate, n=4; cited from earlier work
[10] = test system: drug overdose; conditions: after lipid emulsion; cited from earlier work
[11] = test system: hemodynamic compromise owing to bupivacaine intoxication; conditions: epinephrine 3 μg/kg or Intralipid 20% 2 ml/kg; cited from earlier work
[12] = test system: cardiac arrest caused by bupivacaine intoxication; conditions: epinephrine 10 μg/kg, Intralipid 20% 4 ml/kg, vasopressin 2 IU; cited from earlier work
[13] = test system: brachial plexus; conditions: 150 μg clonidine or 200 μg epinephrine with 0.25% bupivacaine; cited from earlier work
[14] = test system: brachial plexus; conditions: in vivo; cited from earlier work
[15] = test system: levobupivacaine myocardial toxicity; conditions: pig, in vivo; cited from earlier work
[16] = test system: N43 hypothalamic neuronal cells; conditions: cited from earlier work
[17] = test system: postoperative delirium; conditions: postoperative analgesia; cited from earlier work
[18] = test system: brachial plexus; conditions: in vivo; cited from earlier work; remark: listed apart in the source
[19] = test system: brachial plexus; conditions: 30 ml, cited from earlier work
[20] = test system: axillary plexus; conditions: in vivo; cited from earlier work
[21] = test system: brachial plexus; conditions: in vivo; cited from earlier work; remark: listed apart in the source
[22] = test system: brachial plexus; conditions: in vivo; cited from earlier work; remark: listed apart in the source
[23] = target: T1, ATPase of F1 particles from bovine heart mitochondria (Bos taurus, UniProt P00829+P19483); conditions: read-out: concentration required for 50% inhibition of ATPase activity; cited from earlier work
T1 construct: F1 particles isolated from bovine heart mitochondria; from tissue; host or cells: bovine heart mitochondria

[24] = test system: spinal cord ischemia and reperfusion; conditions: intrathecal, cited from earlier work
[25] = target: T2, mitochondrial ATPase (Homo sapiens, UniProt P06576+P25705); conditions: reciprocal plots; cited from earlier work
T2 construct: mitochondrial ATPase prepared by the chloroform extraction method; from tissue; host or cells: mitochondria

[26] = test system: cocaine- and cocaethylene-induced cardiac depression; conditions: 0.25% lipid emulsion or SBE-β-CD; cited from earlier work

Molecule: CCCCCC(O)C=CC=CCCCCCCCC(=O)O (stereo not shown) [13-hydroxyoctadecadienoic acid]
- increase of somatic paired-pulse facilitation [1]: 80%

Molecule: CCN(CC)CCOC(=O)c1ccc(N)cc1Cl [CP 1%, Chloroprocaine]
- Time to reaching discharge criteria [2]: 117 min

Molecule: COc1cccc(-c2cc(=O)c3ccccc3o2)c1N [PD98059]
- effect of inhibitor on Intralipid-induced cardioprotection [3]: only partially
- effect of inhibitor on infarct-sparing effect of ILP [4]: only partially

Molecule: CC(C)c1cccc(C(C)C)c1O [Propofol, propofol]
- odds ratio for oxygen desaturation [5]: 5.22 (95% CI 1.78-15.35)
- cardiac and regional hemodynamic changes [6]: increases in heart rate, coronary and carotid blood flows, and decreases in systemic vascular resistance and dP/dt
- drop in MAP ([7]; 10 mg/kg IV): 55+/−2%
- lowering of MAP ([7]; under chlorisondamine and phenylephrine): 12+/−4%

Molecule: O=[N+]([O-])c1ccc2c(c1)S(=O)(=O)C=C2 [Stattic]
- effect of inhibitor on ITLD-induced cardioprotection [8]: fully abolished

Molecule: O=C([O-])O.[Na+] [bicarbonate, sodium bicarbonate]
- circulation in second phase (severe toxicity) [9]: developed pulseless electrical activity

Molecule: Cn1c(=O)c2c(ncn2C)n(C)c1=O [caffeine]
- plasma caffeine level [10]: > 120 mg/L

Molecule: CNC[C@H](O)c1ccc(O)c(O)c1 [epinephrine]
- survival [11]: 100%
- survival [12]: 71%
- duration of block [13]: 728.3 ± 35.8 min

Molecule: CCCCN1CCCC[C@H]1C(=O)Nc1c(C)cccc1C [levobupivacaine]
- need for rescue analgesics [14]: 55%
- haemodynamic effects of IV injection [15]: induced sinus bradycardia and reduced dMAP and LV dP/dtmax

Molecule: CCCCC/C=C\C/C=C\CCCCCCCC(=O)O [linoleic acid]
- palmitic acid-induced inflammation [16]: reduces palmitic acid-induced inflammation

Molecule: CCOC(=O)C1(c2ccccc2)CCN(C)CC1 [meperidine]
- delirium incidence [17]: significantly higher

Molecule: CCCN1CCCC[C@H]1C(=O)Nc1c(C)cccc1C [ropivacaine]
- patients requiring supplementation [18]: 8 of the 22
- duration of motor block ([19]; listed as 0.5% ropivacaine): 8.29 h
- duration of sensory block ([19]; listed as 0.5% ropivacaine): 9.02 h
- onset of motor block ([19]; listed as 0.5% ropivacaine): 22.23 ± 4.05 min
- onset of sensory block ([19]; listed as 0.5% ropivacaine): 17.79 ± 5.03 min
- duration of motor block ([19]; listed as 0.75% ropivacaine): 7.89 h
- duration of sensory block ([19]; listed as 0.75% ropivacaine): 8.87 h
- onset of motor block ([19]; listed as 0.75% ropivacaine): 22.33 ± 5.17 min
- onset of sensory block ([19]; listed as 0.75% ropivacaine): 18.48 ± 6.14 min
- need for rescue analgesics [14]: 65%
- mean time of block offset [20]: 13.5 h
- muscle relaxation judged as excellent [21]: 35/49
- duration of motor blocks [22]: 12±5
- duration of sensorial analgesia [22]: 13.4±6

Molecule: CCCCNc1ccc(C(=O)OCCN(C)C)cc1 [tetracaine]
- pIC50 [23]: 2.96
- neurologically normal animals ([24]; aortic occlusion 25 minutes): 100%
- neurologically normal animals ([24]; aortic occlusion 30 minutes): 86%
- kind of inhibition [25]: non-competitive

Molecule: sulfobutylether-β-cyclodextrin [SBE-β-CD]
- cardiac depression in Langendorff hearts [26]: mild cardio depressant effect; also recorded: mild cardiodepressant effect
